According to US5066658A, “Substituted hydroxyureas” (Ortho Pharmaceutical Corporation, priority 1990, dated 1991):
pIC50: −log10 of the molar value.

Key:
5-lipoxygenase = target: T1, 5-lipoxygenase (Rattus norvegicus, UniProt P12527); test: Inhibition of 5-lipoxygenase in cell-free homogenate of rat basophilic leukemia (RBL-1) cells; assay type: biochemical; conditions: RBL-1 cell-free homogenate; for inhibition at 3 µM: read-out: Inhibition of 5-Lipoxygenase, % Inh. @ 3 μM
T1 construct: The cell-free homogenate was prepared by sonication of the cells followed by centrifugation at 40,000 xg; endogenous in cells; host or cells: RBL-1 (rat basophilic leukemia) cells, 40,000 xg supernatant of the sonicate
T1 sequence (P12527 1-673): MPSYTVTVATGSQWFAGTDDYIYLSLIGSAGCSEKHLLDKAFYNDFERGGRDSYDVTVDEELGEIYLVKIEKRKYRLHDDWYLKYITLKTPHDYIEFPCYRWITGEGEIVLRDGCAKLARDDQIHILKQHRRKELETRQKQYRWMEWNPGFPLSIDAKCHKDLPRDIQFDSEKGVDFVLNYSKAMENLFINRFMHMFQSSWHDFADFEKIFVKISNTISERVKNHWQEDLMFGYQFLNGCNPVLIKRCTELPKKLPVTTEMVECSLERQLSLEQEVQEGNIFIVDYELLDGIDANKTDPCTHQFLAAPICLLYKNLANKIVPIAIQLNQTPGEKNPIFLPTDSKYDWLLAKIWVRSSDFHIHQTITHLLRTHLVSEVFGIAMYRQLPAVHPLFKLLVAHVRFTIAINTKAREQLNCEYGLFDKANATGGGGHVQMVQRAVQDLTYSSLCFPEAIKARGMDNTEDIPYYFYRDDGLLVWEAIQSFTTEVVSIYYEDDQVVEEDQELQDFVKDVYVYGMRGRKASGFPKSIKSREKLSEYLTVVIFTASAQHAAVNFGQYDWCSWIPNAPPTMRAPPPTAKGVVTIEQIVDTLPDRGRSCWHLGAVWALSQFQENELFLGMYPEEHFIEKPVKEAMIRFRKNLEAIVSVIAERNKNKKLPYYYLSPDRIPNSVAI
In short: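 40,000 xg supernatant of sonicated RBL-1 cell homogenate incubated with ^14C-arachidonic acid and CaCl2, with drug or vehicle. Products extracted after acidification, separated by TLC and quantified by scintillation counting; IC50 or percent inhibition at 3 μM reported.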

[1] = system: Arachidonate-Induced Bronchospasm (cyclooxygenase); test: Pulmonary Mechanics Assay: arachidonate-induced bronchospasm without indomethacin (indicative of cyclooxygenase inhibition); assay type: in vivo, male Hartley guinea pigs; conditions: Cavia porcellus, guinea pig
In short: (§1)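 Urethane-anaesthetised (2 g/kg i.p.), succinylcholine-paralysed, ventilated male Hartley guinea pigs; compound given by various routes between i.v. arachidonic acid challenges (0.5-1.0 mg/kg; then 5-10 mg/kg after indomethacin 10 mg/kg i.v.). Cdyn and RL changes expressed as percent inhibition of control.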

[2] = system: Arachidonate-Induced Bronchospasm (lipoxygenase); test: Pulmonary Mechanics Assay: arachidonate-induced bronchospasm with indomethacin (SRS-A response, indicative of lipoxygenase inhibition); assay type: in vivo, male Hartley guinea pigs; conditions: Cavia porcellus, guinea pig
In short: as §1

[3] = system: Arachidonate-Induced Ear Edema; test: Arachidonic Acid-Induced Ear Edema Assay; assay type: in vivo; conditions: topical, mouse ear; for inhibition in vivo at 0.2 mg: 200 μg topically; for inhibition in vivo at 0.4 mg: 400 μg topically
Description: The topical anti-inflammatory activity of a compound was determined by its ability to inhibit an experimentally-induced inflammation in the mouse ear. Basically, four milligrams of arachidonic acid in acetone were applied to the dorsal surface of one ear with a microliter pipette. The mice were sacrificed at various times after application of arachidonic acid (one-half to six hours). A section of each ear was removed with a 7 mm round punch and weighed on an electronic or analytical balance. The difference in weight between treated and untreated ears was determined. Compounds to be evaluated for anti-inflammatory activity can be incorporated directly into the irritant mixture or at various times prior to or after application of arachidonic acid.
The degree of anti-inflammatory activity is shown in Table I, and is expressed in terms of the percent inhibition of ear weight increase.

[4] = IV dosing, read-out: Inhibition of Arachidonate-Induced Bronchospasm (IV Dosing), % Inh. without Indomethacin
[5] = IV dosing, read-out: Inhibition of Arachidonate-Induced Bronchospasm (IV Dosing), % Inh. with Indomethacin
[6] = read-out: Inhibition of Arachidonate-Induced Ear Edema, % Inh. (μg topically)
[7] = ID dosing, read-out: Inhibition of Arachidonate-Induced Bronchospasm (ID Dosing), % Inh. without Indomethacin
[8] = ID dosing, read-out: Inhibition of Arachidonate-Induced Bronchospasm (ID Dosing), % Inh. with Indomethacin

Compound | inhibition at 3 µM (5-lipoxygenase) [%] | inhibition in vivo at 15 mg/kg [1, 4] [%] | inhibition in vivo at 15 mg/kg [2, 5] [%] | inhibition in vivo at 0.2 mg [3, 6] [%] | inhibition in vivo at 50 mg/kg [1, 7] [%] | inhibition in vivo at 50 mg/kg [2, 8] [%] | Inhibition of Arachidonate-Induced Ear Edema, ED50 [3] [µg] | pIC50 (5-lipoxygenase) | inhibition in vivo at 0.4 mg [3, 6] [%] | also measured
CCCCCCCCCCCCN(O)C(=O)N(C)C [Example 13, N,N-Dimethyl-N.-dodecyl-N'-hydroxyurea] | 95 | 57 | 66 | 90 | – | – | – | – | – | –
CCCCCCCCCCCCCN(O)C(=O)N(C)C [Example 14, N,N-Dimethyl-N'-tridecyl-N'-hydroxyurea] | 95 | – | – | 95 | -128 | 49 | 156 | – | – | –
CCCCCCCCCCCCCCN(O)C(=O)N(C)C [Example 15, N,N-Dimethyl-N'-tetradecyl-N'-hydroxyurea] | 100 | – | – | 26 | -26 | 46 | – | – | – | –
CCCCCCCCCCNC(=O)N(C)O [Example 16, N-Decyl-N'-methyl-N'-hydroxyurea] | – | 55 | 58 | – | – | – | 28 | 6.68 | 73 | inhibition in vivo at 100 mg/kg ([1]; ID dosing, 100 mg/kg, read-out: Inhibition of Arachidonate-Induced Bronchospasm (ID Dosing), % Inh. without Indomethacin): < 20%; inhibition in vivo at 100 mg/kg ([2]; ID dosing, 100 mg/kg, read-out: Inhibition of Arachidonate-Induced Bronchospasm (ID Dosing), % Inh. with Indomethacin): 35%
CCCCCCCCCCN(C)C(=O)N(C)O [Example 17, N-Decyl-N,N'-dimethyl-N'-hydroxyurea] | – | 41 | 79 | – | – | – | 24 | 6.80 | 88 | –
CCCCCCCCCCNC(=O)N(O)CCCC(=O)OCC [Example 19, N-Decyl-N'-[3-(ethoxycarbonyl)propyl]-N'-hydroxyurea] | 94 | – | – | – | -89 | 0 | 183 | – | 60 | –
CCCCCN1CCN(O)C1=O [Example 23, 1-pentyl-3-hydroxyimidazolidin-2-one] | – | 97 | 52 | 29 | – | – | – | < 5.00 | – | –
CCCCCCCCCCN1CCN(O)C1=O [Example 25, 1-Decyl-3-hydroxyimidazolidin-2-one] | – | – | – | – | – | – | 90 | 6.13 | 81 | inhibition in vivo at 20 mg/kg ([1]; IV dosing, 20 mg/kg, read-out: Inhibition of Arachidonate-Induced Bronchospasm (IV Dosing), % Inh. without Indomethacin): 85%; inhibition in vivo at 20 mg/kg ([2]; IV dosing, 20 mg/kg, read-out: Inhibition of Arachidonate-Induced Bronchospasm (IV Dosing), % Inh. with Indomethacin): 62%
COc1ccc(CCNC(=O)N(C)O)cc1OC [Example 40, N-[2-(3,4-Dimethoxyphenyl)ethyl]N'-hydroxy-N'-methylurea] | – | 86 | 89 | – | – | – | – | 5.37 | 66 | inhibition in vivo at 25 mg/kg ([1]; ID dosing, 25 mg/kg, read-out: Inhibition of Arachidonate-Induced Bronchospasm (ID Dosing), % Inh. without Indomethacin): 69%; inhibition in vivo at 25 mg/kg ([2]; ID dosing, 25 mg/kg, read-out: Inhibition of Arachidonate-Induced Bronchospasm (ID Dosing), % Inh. with Indomethacin): 89%
COc1cc2c(cc1OC)CN(C(=O)N(C)O)CC2 [Example 51, 6,7-Dimethoxy-N-hydroxy-N-methyl-1,2,3,4-tetrahydroisoquinoline-2-carboxamide] | 24 | < 20 | 60 | – | – | – | – | – | – | inhibition in vivo at 0.1 mg ([3]; 100 μg topically, read-out: Inhibition of Arachidonate-Induced Ear Edema, % Inh. (μg topically)): 28%
